Data taken from patent US20100048549A1, “Peptidomimetics selective for the somatostatin receptor subtypes 1 and/or 4” (priority 2005, published 2010).
Counter-ions that a name gives are not always drawn. Like-named read-outs stand apart in the source and are kept apart here.

Legend:
[1] = target: T1, human somatostatin receptor subtype sst4 (Homo sapiens, UniProt P31391); experiment: Competition binding with 125I-LTT-SRIF-28, CHO cell membranes, sst4
T1 construct: expressed in transfected cells; host or cells: CHO cells (membranes)
T1 sequence (P31391 whole entry): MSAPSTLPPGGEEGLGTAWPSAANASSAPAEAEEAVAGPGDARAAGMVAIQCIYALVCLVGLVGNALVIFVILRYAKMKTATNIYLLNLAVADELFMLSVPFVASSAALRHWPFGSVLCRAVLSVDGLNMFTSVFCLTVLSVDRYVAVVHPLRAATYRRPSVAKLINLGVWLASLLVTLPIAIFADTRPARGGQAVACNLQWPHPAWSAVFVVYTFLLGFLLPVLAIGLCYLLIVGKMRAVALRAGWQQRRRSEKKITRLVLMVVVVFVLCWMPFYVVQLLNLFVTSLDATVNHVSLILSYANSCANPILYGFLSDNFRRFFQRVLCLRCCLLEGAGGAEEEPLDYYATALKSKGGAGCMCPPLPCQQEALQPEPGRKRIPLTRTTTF
Method: (§1) The affinity of the compounds of the invention for the five human somatostatin receptor subtypes (sst1, sst2, sst3, sst4, and sst5) was determined in competition binding assays with (^125I-Tyr)-[Leu^8, DTrp^22]-Somatostatin-28 (^125I-LTT-SRIF-28). The biological material for these experiments consisted of membranes from Chinese hamster ovary (CHO) cells stably transfected with one of the five human somatostatin receptor subtypes. Membranes (3-20 μg of total protein per sample) and trace amount of ^125I-LTT-SRIF-28 were incubated in 10 mM Hepes, 1 mM EDTA, 5 mM MgCl2, 5 mg/ml of BSA and 30 μg/ml bacitracin, pH 7.6, with six concentrations of the compounds. Each concentration was run in duplicate. Nonspecific binding was defined by 1 μM somatostatin-14 (SRIF-14) and corresponded to 5-25% of total binding. After 60 min at room temperature, incubations were terminated by rapid vacuum filtration through GF/B glass fiber filter mats (presoaked at 4° C. in 200 ml of 10 mM Hepes, 1 mM EDTA, 5 mM MgCl2, pH 7.6) and three 5 ml washes with ice-cold wash buffer (20 mM TRIS, 1 mM EDTA, 5 mM MgCl2, pH 7.4). The filters were then dried, impregnated with scintillate and their radioactivity was measured by scintillation counting. The analysis of the experiments was carried out by nonlinear least square curve fitting. Affinity constants (Ki) were calculated from the IC50 values according to the Cheng-Prusoff's equation (Cheng and Prusoff, 1973). Experiments were repeated a minimum of three times.

[2] = target: T2, human somatostatin receptor subtype sst1 (Homo sapiens, UniProt P30872); experiment: Competition binding with 125I-LTT-SRIF-28, CHO cell membranes, sst1
T2 construct: expressed in transfected cells; host or cells: CHO cells (membranes)
T2 sequence (P30872 whole entry): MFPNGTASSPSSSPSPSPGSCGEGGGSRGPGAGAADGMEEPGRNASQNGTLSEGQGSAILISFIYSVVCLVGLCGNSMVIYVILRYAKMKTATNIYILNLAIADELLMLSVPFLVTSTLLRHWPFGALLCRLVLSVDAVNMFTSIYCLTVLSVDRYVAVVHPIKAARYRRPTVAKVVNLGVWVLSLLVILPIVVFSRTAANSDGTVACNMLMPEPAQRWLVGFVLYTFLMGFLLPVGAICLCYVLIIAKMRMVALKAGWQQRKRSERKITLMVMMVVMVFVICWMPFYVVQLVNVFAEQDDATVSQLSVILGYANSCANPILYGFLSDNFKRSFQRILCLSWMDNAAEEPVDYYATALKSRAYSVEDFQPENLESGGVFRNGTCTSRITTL
Method: as §1

[3] = target: T3, human somatostatin receptor subtype sst5 (Homo sapiens, UniProt P35346); experiment: Competition binding with 125I-LTT-SRIF-28, CHO cell membranes, sst5; settings: membranes of CHO cells transfected with human sst5
T3 construct: expressed in transfected cells; host or cells: CHO cells (membranes)
T3 sequence (P35346 whole entry): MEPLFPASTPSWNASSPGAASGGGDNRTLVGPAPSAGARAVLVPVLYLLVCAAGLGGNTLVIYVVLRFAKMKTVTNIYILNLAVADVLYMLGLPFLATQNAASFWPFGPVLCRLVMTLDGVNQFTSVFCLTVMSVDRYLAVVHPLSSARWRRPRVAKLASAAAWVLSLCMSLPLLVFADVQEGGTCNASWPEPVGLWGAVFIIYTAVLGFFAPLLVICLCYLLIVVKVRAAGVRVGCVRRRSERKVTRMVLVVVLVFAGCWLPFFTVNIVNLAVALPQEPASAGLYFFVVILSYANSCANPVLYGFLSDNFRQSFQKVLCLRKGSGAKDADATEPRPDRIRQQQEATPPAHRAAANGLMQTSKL
Method: as §1, with “The analysis of the experiments was carried out by nonlinear least square curve fitting.” left out, “Experiments were repeated a minimum of three times.” left out

[4] = target: T4, human somatostatin receptor subtype sst3 (Homo sapiens, UniProt P32745); experiment: Competition binding with 125I-LTT-SRIF-28, CHO cell membranes, sst3; settings: membranes of CHO cells transfected with human sst3
T4 construct: expressed in transfected cells; host or cells: CHO cells (membranes)
T4 sequence (P32745 whole entry): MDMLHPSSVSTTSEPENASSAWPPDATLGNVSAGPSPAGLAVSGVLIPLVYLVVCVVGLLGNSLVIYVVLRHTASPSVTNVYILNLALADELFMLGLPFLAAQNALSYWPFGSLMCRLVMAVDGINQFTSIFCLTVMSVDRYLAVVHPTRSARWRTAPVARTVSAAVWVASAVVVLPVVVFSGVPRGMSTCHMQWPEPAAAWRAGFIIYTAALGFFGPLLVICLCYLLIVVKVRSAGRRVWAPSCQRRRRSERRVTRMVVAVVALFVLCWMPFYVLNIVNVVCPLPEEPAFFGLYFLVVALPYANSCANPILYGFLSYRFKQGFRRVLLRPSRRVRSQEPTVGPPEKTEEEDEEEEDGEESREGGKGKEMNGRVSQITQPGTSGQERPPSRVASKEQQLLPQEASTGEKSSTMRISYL
Method: as §1, with “The analysis of the experiments was carried out by nonlinear least square curve fitting.” left out, “Experiments were repeated a minimum of three times.” left out

[5] = target: T5, human somatostatin receptor subtype sst2 (Homo sapiens, UniProt P30874); experiment: Competition binding with 125I-LTT-SRIF-28, CHO cell membranes, sst2; settings: membranes of CHO cells transfected with human sst2
T5 construct: expressed in transfected cells; host or cells: CHO cells (membranes)
T5 sequence (P30874 whole entry): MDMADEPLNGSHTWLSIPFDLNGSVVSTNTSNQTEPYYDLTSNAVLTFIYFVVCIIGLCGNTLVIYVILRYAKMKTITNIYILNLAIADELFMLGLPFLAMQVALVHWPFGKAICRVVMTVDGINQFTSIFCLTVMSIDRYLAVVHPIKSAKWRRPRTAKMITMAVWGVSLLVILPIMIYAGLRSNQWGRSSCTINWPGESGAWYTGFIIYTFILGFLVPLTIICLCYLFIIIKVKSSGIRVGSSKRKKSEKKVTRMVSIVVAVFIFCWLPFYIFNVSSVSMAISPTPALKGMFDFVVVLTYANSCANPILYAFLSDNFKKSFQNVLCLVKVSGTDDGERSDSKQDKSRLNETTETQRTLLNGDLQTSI
Method: as §1, with “The analysis of the experiments was carried out by nonlinear least square curve fitting.” left out, “Experiments were repeated a minimum of three times.” left out

[6] = clinical trials; Eriksen et al. 1995, van Essen et al. 1997; cited from earlier work
[7] = bound only, read-out: Ki values for the sst4
[8] = bound only, read-out: Ki values for the sst1
[9] = membranes of CHO cells transfected with human sst4, read-out: sst4 Ki
[10] = membranes of CHO cells transfected with human sst1, read-out: sst1 Ki

Ki [1, 7]	Ki [2, 8]	Structure (SMILES)	further results
< 300 nM	< 300 nM	Cc1ccc(S(=O)(=O)N[C@@H](CCNC2=NCCN2)COCc2ccccc2)c2ccccc12 [compound 79, (S)-4-methylnaphthalene-1-sulfonic acid [1-benzyloxymethyl-3-(4,5-dihydro-1H-imidazol-2-ylamino)propyl]amide formic acid salt]	
< 300 nM	< 300 nM	Cc1ccc(S(=O)(=O)N[C@@H](CCCNC(C)C)COc2ccccc2)c2ccccc12 [compound 33, (S)-4-methylnaphthalene-1-sulfonic acid (4-isopropylamino-1-phenoxymethylbutyl)amide]	Ki [1, 9]: 110 ± 10 nM; Ki [3]: > 3000 nM; Ki [4]: > 3000 nM; Ki [5]: > 10000 nM; Ki [2, 10]: 9.6 ± 0.5 nM
< 300 nM	< 300 nM	Cc1ccc(S(=O)(=O)N[C@H](CCN)COCc2ccccc2)c2ccccc12 [compound 64, (R)-4-methylnaphthalene-1-sulfonic acid (3-amino-1-benzyloxymethylpropyl)amide]	
< 300 nM	< 300 nM	Cc1ccc(S(=O)(=O)N[C@@H](CNCCN(C)C)COCc2ccccc2)c2ccccc12 [compound 27, (S)-4-methylnaphthalene-1-sulfonic acid {2-benzyloxy-1-[(2-dimethylaminoethylamino)methyl]ethyl}amide]	
< 300 nM	< 300 nM	Cc1ccc(S(=O)(=O)N[C@@H](CCCNC(C)C)COCc2ccccc2)c2ccccc12 [compound 62, (S)-4-methylnaphthalene-1-sulfonic acid (1-benzyloxymethyl-4-isopropylaminobutyl)amide]	
< 300 nM	< 300 nM	Cc1ccc(S(=O)(=O)NC(COCc2ccccc2)CC2CCCN2)c2ccccc12 (stereo not drawn) [compound 32, 4-methylnaphthalene-1-sulfonic acid (1-benzyloxymethyl-2-pyrrolidin-2-ylethyl)amide]	
< 300 nM	< 300 nM	Cc1ccc(S(=O)(=O)N[C@@H](CCCN)COCc2ccccc2)c2ccccc12 [compound 15, (S)-4-methyl-naphthalene-1-sulfonic acid (4-amino-1-benzyloxymethylbutyl)amide]	

The next lines start with the compound.

Structure (SMILES)	Ki [1, 7]	Ki [2, 8]	further results
CC(C)[C@@H]1NC(=O)[C@H](CCCCN)NC(=O)[C@@H](Cc2c[nH]c3ccccc23)NC(=O)[C@H](Cc2ccc(O)cc2)NC(=O)[C@@H](NC(=O)[C@H](N)Cc2ccc3ccccc3c2)CSSC[C@@H](C(=O)N[C@H](C(N)=O)[C@@H](C)O)NC1=O [lanreotide]			efficacy in prevention of restenosis [6]: failed to show efficacy
Cc1ccc(S(=O)(=O)N[C@@H](CCN)CNCc2ccccc2)c2ccccc12 [compound 2, (S)-4-methylnaphthalene-1-sulfonic acid (3-amino-1-benzyl-aminomethylpropyl)amide]			Ki [1, 9]: 5.6 ± 3.2 nM; Ki [3]: > 3000 nM; Ki [4]: > 3000 nM; Ki [5]: > 10000 nM; Ki [2, 10]: 200 ± 60 nM
C[C@@H](O)[C@@H]1NC(=O)[C@H](CCCCN)NC(=O)[C@@H](Cc2c[nH]c3ccccc23)NC(=O)[C@H](Cc2ccccc2)NC(=O)[C@@H](NC(=O)[C@H](N)Cc2ccccc2)CSSC[C@@H](C(=O)N[C@H](CO)[C@@H](C)O)NC1=O [octreotide]			efficacy in prevention of restenosis [6]: failed to show efficacy
Cc1ccc(S(=O)(=O)N[C@@H](CCCN)COc2ccccc2)c2ccccc12 [compound 13, (S)-4-methylnaphthalene-1-sulfonic acid (4-amino-1-phenoxymethylbutyl)amide]	< 300 nM	< 300 nM	
Cc1ccc(S(=O)(=O)N[C@@H](CCNC(=N)N)COCc2ccccc2)c2ccccc12 [compound 4, (S)-4-methylnaphthalene-1-sulfonic acid (1-benzyloxymethyl-3-guanidinylpropyl)amide]	< 300 nM	< 300 nM	
